Results: patent US20260232825A1, “LINKER-DRUG MOLECULE AND ANTIBODY DRUG CONJUGATE, PREPARATION METHOD THEREFOR AND USE THEREOF” (SHANGHAI ESCUGEN BIOTECHNOLOGY CO., LTD., priority 2023, published 2026)
pIC50: −log10 of the molar value. Like-named read-outs stand apart in the source and are kept apart here. Numbered stars: 1 amine (or outer) side, 2 acyl side, 3 side chain; on linkers, the order of the positions; unused ones are H or OH. Square brackets hold non-standard residues; d marks the D form. Peptide text beside a SMILES is read from it. * marks the point of attachment. Dolaproine = CO[C@@H]([C@@H]1CCCN1)[C@@H](C)C(=O)O; Hexanoyl(6-maleimido) = O=C1C=CC(=O)N1CCCCCC(=O)*; Dil = CC[C@H](C)[C@H](NC)[C@@H](CC(=O)O)OC; PABC = O=C(OCc1ccc(N[*:1])cc1)[*:2]; X1 = C[N+](C)(CCCS(=O)(=O)[O-])CCN*; X2 = C[C@@H](N*)[C@@H](O)c1ccccc1; NMeV = CN[C@H](C(=O)O)C(C)C

Tests used:
[1] = system: MC38 hClaudin18.2 tumor (high expression of p-gp); experiment: Pharmacodynamics in p-gp mediated drug-resistant tumor bearing mouse model; type: in vivo; settings: in words; ADC 10 mg/kg i.p. QW × 2, Tariquidar p.o. QD × 10
Method: Modeling and administration of tumor bearing mice: BALB/c Nude mice (female, 5-6 week old) were subcutaneously inoculated with MC38 hClaudin18.2 cells (1×10^6 cells in […]) on the ventral side. When the tumor volume increased to about 120 mm^3, the mice were randomly divided into groups and administered according to Table 10. The tumor and body weight were measured twice a week to calculate the tumor volumes (TV, mm^3) and plot the tumor growth curves. TV (mm^3)=(L×W^2)/2, wherein L represents tumor length, and W represents tumor width. GraphPad Prism software (GraphPad Software, San Diego, California) and XY mode were selected to plot the tumor growth curves and weight curves of mice, and the tumor volumes and weights were represented as mean±standard error.

[2] = system: HEK293-hClaudin18.2 cells; experiment: In vitro cell killing activity, HEK293-hClaudin18.2 cell line (AlamarBlue); type: cell-based
Method: HEK293-hClaudin18.2 cells were cultured in DMEM medium containing 10% FBS, supplemented with 250 μg/mL G418 to subject to adherent culture at 37° C. in 5% CO2 incubator. When the cell confluence was greater than 80%, the cells were passaged at a ratio of 1:20 to 1:40 every 3 days.
HEK293-hClaudin18.2 cells were digested by a digestive solution of recombinant enzyme (TrypLE™ Express Enzyme). After counting, an appropriate amount of cells were taken to resuspend with DMEM+10% FBS. The cell density was adjusted to 2×10^4 cells/mL, inoculating into 96-well cell culture plate at 100 μL/well. The cells were cultured overnight at 37° C. in 5% CO2 incubator. The next day, 9D1 ADC and small molecular toxin were diluted 10 times in a series from 1000 nM (final concentration, 500 nM) with a total of 7-8 concentration points, simultaneously setting a negative control with a sample concentration of 0, and a blank control containing only same volume (200 μL/well) of medium without cells. The diluted sample was added to 96-well cell culture plate containing cells at 100 μL/well (two duplicated wells), then incubating at 37° C. in 5% CO2 incubator for 72 hours. The cell viability was detected by the AlamarBlue detection method mentioned above, then processing data to calculate the IC50 values, and the results are shown in Table 5 below.

MC38-hClaudin18.2 cells = experiment: In vitro tumor cell killing activity, MC38-hClaudin18.2 cell line (AlamarBlue); type: cell-based, mouse
Method: 9D1 antibody-drug conjugates prepared in the previous Experimental Examples and Comparative Examples were used for performing in vitro killing test on MC38 cell lines stably expressing human Claudin18.2. MC38-hClaudin18.2 cells were inoculated into a 96-well cell culture plate at 3000 cells/well, adding gradient diluted 9D1 ADCs next day to culture for 48-72 hours. The fluorescence values of each experimental well were detected by AlamarBlue reagent (ThermoFisher, item number DAL1100), and the cell viability was calculated.
When the cell confluence was greater than 80%, the cells were passaged at a ratio of 1:10 to 1:20 every 3 days.
MC38-hClaudin18.2 cells were digested by a digestive solution of recombinant enzyme (TrypLE™ Express Enzyme). […] The cell density was adjusted to 3×10^4 cells/mL, inoculating into 96-well cell culture plate at 100 μL/well. The cells were cultured overnight at 37° C. in 5% C02 incubator. The next day, the test drug was diluted 10 times in a series with a total of 7-8 concentration points, simultaneously setting a blank control with a sample concentration of 0. The diluted sample was added to 96-well cell culture plate containing cells at 100 μL/well, then incubating at 37° C. in 5% CO2 incubator for 48-72 hours. 20 μL of AlamarBlue detection reagent was added to each well, incubating at 37° C. for 4-6 hours, the fluorescence signal intensity was detected on a multifunctional enzyme-linked immunosorbent assay (ELISA) instrument with an excitation wavelength of 560 nm and an emission wavelength of 590 nm.
The cell viability of the blank control was set to 100%, and the cell viability (%) of the experimental well was calculated by the following formula: […]
The detected average cell viability was takedn as the y-axis, a sigmoid dose response (Variable Slope) method (GraphPad Prism software, GraphPad Software, San Diego, California) was used for nonlinear regression to obtain the inhibitory effect curves of cell proliferation, and the corresponding IC50 values (half maximum inhibition concentration) were calculated. […]

[3] = system: B16F10-hClaudin18.2 cells; experiment: Immunogenic cell death of B16F10-hClaudin18.2 cells (Calreticulin/PI FACS); type: cell-based; settings: small molecular drug load 10 nM, 48 hours
Method: The B16F10-hClaudin18.2 cells were resuscitated and cultured in a medium of DMEM (Thermo, cat #: 10569044)^+10% FBS (Thermo, Cat #: 10099-141C)+0.5 μg/mL Puromycin to subject to adherent culture at 37° C. in 5% CO2 incubator. When the cell confluence was greater than 80%, the cells were passaged at a ratio of 1:10 to 1:20 every 3-4 days.
When the cells grew to a confluence of about 80%, the cells were digested by a digestive solution of recombinant enzyme (TrypLE™ Express Enzyme, Thermo, cat #: 12605028). Then the cells were resuspended with DMEM+10% FBS, and an appropriate volume was taken for counting. The cell density was adjusted to 1×10^4 cells/mL, and inoculated into 96-well cell plate at 100 μL/well to culture overnight at 37° C. in 5% CO2 incubator. The next day, the ADC drug was diluted with DMEM+10% FBS medium to a final concentration of 750 nM, the small molecule toxin Exatecan was diluted to a final concentration of 10 nM, and sample concentration of 0 was set as blank control. The diluted samples were respectively added to 96-well cell culture plate containing cells at 100 μL/well to incubate at 37° C. in 5% CO2 incubator for 48 hours. […]

NUGC4-hClaudin18.2 cells = experiment: In vitro tumor cell killing activity, NUGC4-hClaudin18.2 cell line (CCK-8); type: cell-based; settings: Homo sapiens, 120 h, read-out: IC50 values (nM)
Method: When the cell confluence was greater than 80%, the cells were passaged at a ratio of 1:3 to 1:10 every 3-4 days.
NUGC4-hClaudin18.2 cells were digested by a digestive solution of recombinant enzyme (TrypLE™ Express Enzyme). […] The cell density was adjusted to 3×10^4 cells/mL, inoculating into 96-well cell culture plate at 100 μL/well. The cells were cultured overnight at 37° C. in 5% CO2 incubator. The next day, 9D1 ADC and small molecular toxin were diluted 5 times in a series from 1000 nM (final concentration, 500 nM) with a total of 7-8 concentration points, simultaneously setting a negative control with a sample concentration of 0, and a blank control containing only medium without cells. The diluted sample was added to 96-well cell culture plate containing cells at 100 μL/well (two duplicated wells), then incubating at 37° C. in 5% CO2 incubator for 120 hours. 20 μL of CCK-8 detection reagent (Dongren Chemical, CAS #CK04) was added to each well, incubating at 37° C. for 3-4 hours. The OD values of each well in the ELISA plate were measured at a wavelength of 450 nm and a reference wavelength of 630 nm on a multifunctional enzyme-linked immunosorbent assay (ELISA) reader, for each well, OD value=0D450 nm−OD630 nm. The cell viability of the negative control was set to 100%, and the cell viability (%) of the experimental wells was calculated according to the following formula. […]

[4] = Hydrophobic interaction chromatography (HIC) analysis of the antibody-drug conjugates; type: physicochemical; settings: main peak of the antibody-drug conjugate, Butyl-NPR column
Method: Size exclusion chromatography (SEC) analysis column is Tskgel G3000SWXL (TOSOH, 0008541); mobile phase is 0.1 M PB, pH7.0, 0.1M NaCl; isocratic elution, flow rate: 1 mL/min; column temperature: 25° C. Detection wavelength is 280 nm and 366 nm, respectively. Hydrophobic interaction chromatography (HIC) analysis column is Butyl-NPR 4.6×100 mm (TOSOH, 0042168); mobile phase A is 50 mM PB, pH7.0, 1.5 M (NH4)2SO4; mobile phase B is 50 mM PB, pH7.0, 20% acetonitrile. Separation gradient: changing from 0% B to 100% B in 2-20 min, column temperature: 30° C., flow rate: 0.6 mL/min. Detection wavelength is 280 nm and 366 nm, respectively. The results are shown in Table 1 and FIG. 1-FIG. 6 (FIG. 1 comprises FIG. 1A and FIG. 1B; FIG. 2 comprises FIG. 2A and FIG. 2B; FIG. 3 comprises FIG. 3A, FIG. 3B, FIG. 3C, FIG. 3D, FIG. 3E, FIG. 3F, FIG. 3G and FIG. 3H; FIG. 4 comprises FIG. 4A and FIG. 4B; FIG. 5 comprises FIG. 5A and FIG. 5B; and FIG. 6 comprises FIG. 6A, FIG. 6B, FIG. 6C, […], FIG. 6E, FIG. 6F, FIG. 6G and […]).

Cathepsin B enzyme = biological target: T1, Cathepsin B enzyme (Homo sapiens, UniProt P07858); experiment: In vitro enzymatic release of free toxin molecules by Cathepsin B; type: biochemical
T1 construct: purchased Sino Biological 10483-H08H
Method: Preparation of activated buffer solution (10 mM L-cysteine (ACRO, cat #: 173600250), 15 mM EDTA, 0.1M His HCl, pH 5.5): […] of solid cysteine was weighed, adding 3 mL of 0.1M His HCl (pH 5.5) solution for dissolution, and then adding 90 μL of 0.5M EDTA solution to mix well.
[…] At each detection time point, 50 μL of enzyme digestion solution was taken, adding 2.5 μL of 10% TFA solution to terminate the reaction for enzyme digestion kinetics detection.
Negative control preparation: 30 μL of activated buffer was taken to stay in 37° C. water bath for 15 minutes, then adding 300 μL of 0.1M His HCl (pH 5.5) solution and 36 μL of 9D1-LD-38 (375 μg) to stay in 37° C. water bath overnight.

[5] = Size exclusion chromatography (SEC) analysis of the antibody-drug conjugates; type: physicochemical; settings: SEC purity of the antibody-drug conjugate
Method: Size exclusion chromatography (SEC) analysis column is Tskgel G3000SWXL (TOSOH, 0008541); mobile phase is 0.1 M PB, pH7.0, 0.1M NaCl; isocratic elution, flow rate: 1 mL/min; column temperature: 25° C. Detection wavelength is 280 nm and 366 nm, respectively. Hydrophobic interaction chromatography (HIC) analysis column is Butyl-NPR 4.6×100 mm (TOSOH, 0042168); mobile phase A is 50 mM PB, pH7.0, 1.5 M (NH4)2SO4; mobile phase B is 50 mM PB, pH7.0, 20% acetonitrile. Separation gradient: changing from 0% B to 100% B in 2-20 min, column temperature: 30° C., flow rate: 0.6 mL/min. Detection wavelength is 280 nm and 366 nm, respectively.

Compound: COc1cc2c(cc1OC)CN(CCc1ccc(NC(=O)c3cc(OC)c(OC)cc3NC(=O)c3cnc4ccccc4c3)cc1)CC2 [Tariquidar]
- tumor inhibitory effect [1]: has no tumor inhibitory effect

Compound: CC[C@@]1(O)C(=O)OCc2c1cc1n(c2=O)Cc2c-1nc1cc(F)c(C)c3c1c2[C@@H](N)CC3 [Exatecan]
- IC50 ([2]; 72 h, read-out: IC50 values (nM), HEK293-hClaudin18.2 cells, 72 hours, AlamarBlue): 0.51 nM
- pIC50 ([2]; read-out: IC50 values, HEK293-hClaudin18.2 cells, 72 hours, AlamarBlue): 9.29
- IC50 (MC38-hClaudin18.2 cells; Mus musculus, read-out: IC50 values (nM), MC38-hClaudin18.2 cells, 48-72 hours, AlamarBlue): 4.1 nM
- pIC50 (MC38-hClaudin18.2 cells; read-out: IC50 values; MC38-hClaudin18.2 cells, 48-72 hours, AlamarBlue): 8.39
- ratio of Calreticulin(+)/PI(−) cells [3]: significantly raised
- IC50 (NUGC4-hClaudin18.2 cells): 2.01 nM

Compound: CC[C@@]1(O)C(=O)OCc2c1cc1n(c2=O)Cc2c-1nc1cc(F)c(C)c3c1c2[C@@H](NC(=O)CO)CC3 [Dxd]
- ratio of Calreticulin(+)/PI(−) cells [3]: significantly raised

Compound: CC[C@@]1(O)C(=O)OCc2c1cc1n(c2=O)Cc2c-1nc1cc(F)c(C)c3c1c2[C@@H](NC(=O)OCc1ccc(NC(=O)[C@H](C)NC(=O)[C@@H](NC(=O)CCOCCOCCOCCOCCNC(=O)CCN2C(=O)C=CC2=O)C(C)C)cc1CN(C)C(=O)CCC[N+](C)(C)CCCS(=O)(=O)[O-])CC3 [LD-65]
- HIC retention time [4]: 13.46 min
- HIC retention time ([4]; listed as 7): 13.455 min
- Cathepsin B enzyme digestion kinetics (Cathepsin B enzyme; Time 0 h, linker-toxin to Cathepsin B about 1200:1, 37° C.): 0%
- Cathepsin B enzyme digestion kinetics (Cathepsin B enzyme; Time 1 h): 0%
- Cathepsin B enzyme digestion kinetics (Cathepsin B enzyme; Time 2 h): 1%
- Cathepsin B enzyme digestion kinetics (Cathepsin B enzyme; Time 4 h): 1%
- SEC % [5]: 99.28%

Compound: CC[C@H](C)[C@@H]([C@@H](CC(=O)N1CCC[C@H]1[C@H](OC)[C@@H](C)C(=O)N[C@H](C)[C@@H](O)c1ccccc1)OC)N(C)C(=O)[C@@H](NC(=O)[C@H](C(C)C)N(C)C(=O)OCc1ccc(NC(=O)[C@H](CCC(=O)NCC[N+](C)(C)CCCS(=O)(=O)[O-])NC(=O)[C@@H](NC(=O)CCCCCN2C(=O)C=CC2=O)C(C)C)cc1)C(C)C [LD-57] ({Hexanoyl(6-maleimido)}-VE(X1)[PABC][NMeV]V[Dil][Dolaproine]-X2)
- HIC retention time [4]: 16.066 min
- SEC % [5]: 99.34%

Compound: CC[C@@]1(O)C(=O)OCc2c1cc1n(c2=O)Cc2c-1nc1cc(F)c(C)c3c1c2[C@@H](NC(=O)OCc1ccc(NC(=O)CNC(=O)[C@H](Cc2ccccc2)NC(=O)CNC(=O)CNC(=O)CCCCCN2C(=O)C=CC2=O)cc1CN(C)C(=O)COP(=O)([O-])OCC[N+](C)(C)C)CC3 [LD-72]
- HIC retention time [4]: 13.126 min
- SEC % [5]: 98.90%

Compound: CC[C@H](C)[C@@H]([C@@H](CC(=O)N1CCC[C@H]1[C@H](OC)[C@@H](C)C(=O)N[C@H](C)[C@@H](O)c1ccccc1)OC)N(C)C(=O)[C@@H](NC(=O)[C@@H](NC)C(C)C)C(C)C [MMAE, monomethyl auristatin E] (H-[NMeV]V[Dil][Dolaproine]-X2)
- pIC50 (MC38-hClaudin18.2 cells; MC38-hClaudin18.2 cells, 48-72 hours, AlamarBlue; read-out: IC50 values): 8.69
